This is an account of results in patent publication US11083199B2, “Heterocycle derivatives as pesticides” (Bayer Aktiengesellschaft, priority 2017, dated 2021).

Holding throughout (assay type): in vivo
One assay concerns Boophilus microplus. Description: Boophilus microplus injection test. The note with it: application rate 20 μg/animal, injected; laying of fertile eggs assessed after 7 days. As to the method:
Solvent: dimethyl sulfoxide To produce a suitable active ingredient formulation, 10 mg of active ingredient are mixed with 0.5 ml of solvent and the concentrate is diluted to the desired concentration with solvent. 1 μl of the active ingredient solution is injected into the abdomen of 5 engorged adult female cattle ticks (Boophilus microplus). The animals are transferred into dishes and kept in a climate-controlled room. Efficacy is assessed after 7 days by laying of fertile eggs. Eggs which are not visibly fertile are stored in a climate-controlled cabinet until the larvae hatch after about 42 days. An efficacy of 100% means that none of the ticks has laid any fertile eggs; 0% means that all the eggs are fertile.

Assay [1] relates to Myzus persicae. Briefly: Myzus persicae oral test. The note with it: 120 h, application rate 4 ppm, after 5 days, read-out: efficacy. The method, boiled down:
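Compound formulation diluted with IPL41 insect medium (33%+15% sugar) and sealed under parafilm; mixed-population aphids feed through the membrane from a second plate. Mortality scored after 5 days as % efficacy (100% = all aphids killed, 0% = none).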

Another assay relates to Lucilia cuprina. Description: Lucilia cuprina test. To be noted: 48 h, application rate 100 ppm, L1 larvae, kill after 2 days, read-out: efficacy. A digest of the protocol: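 About 20 L1 larvae of Lucilia cuprina placed on minced horsemeat containing compound (DMSO stock diluted in water to test concentration). Kill (%) scored after 2 days; 100% = all larvae dead, 0% = none dead.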

The test system of assay [2] is Myzus persicae. Briefly: Myzus persicae spray test. To be noted: foliar, 120 h, application rate 100 g/ha, Chinese cabbage leaf discs, after 5 days, read-out: efficacy. A digest of the protocol: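 Chinese cabbage leaf discs infested with all aphid stages sprayed with compound formulated in emulsifier-containing water (1000 ppm emulsifier). Efficacy (% aphids killed; 100% = all killed) determined after 5 days.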

The next assay has as its system Phaedon cochleariae. Briefly: Phaedon cochleariae spray test. To be noted: 168 h, application rate 100 g/ha, larvae, after 7 days, read-out: efficacy. A digest of the protocol:
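Chinese cabbage leaf discs sprayed with compound formulated in solvent and water containing 1000 ppm emulsifier. Once dry, discs were populated with mustard beetle larvae. Percent kill scored after 7 days, 100% meaning all larvae dead and 0% none.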

`CCS(=O)(=O)c1c(-c2nc3cc(C(F)(F)F)ncc3n2C)nc(-c2cccnc2)n1C` [Example I-016]: in the assay on Boophilus microplus, the efficacy is recorded as 90%. Moreover, the pest or weed control at 4 ppm in the assay with Myzus persicae [1] worked out at 100%. Further, the pest or weed control at 100 ppm in the assay with Lucilia cuprina stood at 100%. In addition, the pest or weed control at 100 g/ha with Myzus persicae [2] stood at 100%.
`CCNC(=O)c1nc(-c2nc3cc(C(F)(F)F)ncc3n2C)c(S(=O)(=O)CC)n1C` [Example I-041]: in the assay with Boophilus microplus, the efficacy came to 100%. In addition, the pest or weed control at 4 ppm in the assay with Myzus persicae [1] came to 100%. The pest or weed control at 100 g/ha in the assay on Phaedon cochleariae was found to be 100%; in the assay with Myzus persicae [2] it was 90%.
